row,SMILES,melting point
1,C=CCOC(C(Cc1ccc(Cl)cc1)n1cncn1)C1(C)COCOC1 (stereo unspecified),113 to 115 °C
2,O=C1c2cccnc2CCCC1Br (stereo unspecified),193 to 195 °C
3,Cc1c(C2(c3cccs3)CCC(c3ccccc3)(N(C)C)CC2)[nH]c2ccccc12 (stereo unspecified),202 to 205 °C
4,CC(C)(C)N(NC(=O)c1ccccc1)C(=O)C1CCCCC1,202 to 204 °C
5,CCCOC(=O)c1c(CBr)nc2cc(OC)c(OC)cc2c1-c1ccc(OC)c(OC)c1,144 to 145 °C
6,CCCCCCC(Oc1ccc(C2=CCCCCC2)cc1)C(=O)O (stereo unspecified),59 to 60 °C
7,Cc1nc2ccc(O)cc2c(=O)n1C1CCC(=O)NC1=O (stereo unspecified),315 to 317 °C
8,COc1cc(C(C)=O)ccc1OCCCN1CCC(c2noc3cc(F)ccc23)CC1,118 to 120 °C
9,CCN(CC)CCOc1ccc(Nc2ncc3c(n2)N(C)C(=O)N(c2c(C)cccc2C)C3)cc1,58 °C
10,CC(=O)OC1CCC2(C)C(=CC(=O)C3C2CCC2(C)C(C(C)CCCC(C)(C)C)CCC32)C1 (stereo unspecified),183 to 186 °C
11,CCNc1nc2ccccc2n2c(CC)nnc12,235 to 238 °C
12,C[C@H]1C(=O)CCN1c1ccc(C#N)c2ccccc12,113 to 114 °C
13,COc1ccc(-c2cc(=O)c3c(OC)c(I)c(OC)cc3o2)cc1,191 to 194 °C
14,CCCCCC(=O)OCC(=O)C1CC2c3cccc4[nH]cc(c34)CC2N(C)C1 (stereo unspecified),135 to 137 °C
15,CSC(=O)c1ccccc1NC1CCN(C)CC1,64 to 65 °C
16,CCOC(=O)c1cc(=O)c2ccc(N)cc2o1,192 to 194 °C
17,CC(C(=O)N1CCOCC1)N1CCN(c2ccccc2)CC1 (stereo unspecified),105 to 107 °C
18,Clc1cccc2c3c([nH]c12)CCCC3,144 to 146 °C
19,CCOC(=O)CC(=O)Nc1ccc(S)cc1,69 °C
20,N#CSc1ccc(N)c(Br)c1,74 to 79 °C
21,O=c1[nH]c2ccc(CCCNCC[C@H]3CC[C@H](c4ccc(F)cc4)CC3)cc2o1,99 to 109 °C
22,CCC(C)CCCCCCCCCCCCCCCCC(=O)O (stereo unspecified),53 °C

# More lines, now with the values ahead:
row,melting point,SMILES
1,134 to 135 °C,CN(Cc1cc(C(F)(F)F)cc(C(F)(F)F)c1)C(=O)c1ncc2ccccc2c1-c1ccc(F)cc1
2,61 °C,CCCC1COC(c2cc(F)c(C(F)(F)Oc3ccc(-c4cc(F)c(OC(F)(F)F)c(F)c4)c(F)c3)c(F)c2)OC1 (stereo unspecified)
3,83 to 84 °C,O=[N+]([O-])c1cc(C(F)(F)F)cc(C(F)(F)F)c1S(=O)(=O)Oc1ccccc1
4,169 to 170 °C,COc1c(Oc2ccccc2C)cccc1C(N)C(=O)O (stereo unspecified)
5,189 to 191 °C,CNC(=S)Nc1cc(C(=O)OC)c(O)c2ncc(Cc3ccc(F)cc3)cc12
6,190 to 192 °C,O=Cc1ccc(CN2C(=O)c3ccccc3C2=O)c2ccccc12
7,175 to 176 °C,Cc1c(-c2ccccc2)oc2c(NC(=O)C(F)(F)F)cccc2c1=O
8,208 to 213 °C,COC(=O)c1ccc2oc(C(=O)C(Cc3ccccc3)NC(=O)Cn3c(-c4ccc(F)cc4)ncc(N)c3=O)nc2c1 (stereo unspecified)
9,293 to 296 °C,O=C(Nc1ccccc1)c1ccc2c(c1)S(=O)(=O)N=CN2C1CC1
10,72 to 73 °C,CS(=O)(=O)O[C@H](COCc1ccccc1)[C@@H](COCc1ccccc1)OS(C)(=O)=O
11,152 to 153 °C,COc1ccc2c(c1)CC(=O)c1cc(C(C)C(=O)O)ccc1S2 (stereo unspecified)
12,152 to 154 °C,O=C(c1ccc(Cl)cc1)c1cccc2c1CCCC2C(=O)O (stereo unspecified)
13,182 to 183 °C,O=C(O)C1c2ccccc2COc2ccc(Cl)cc21 (stereo unspecified)
14,86 to 87 °C,COC(=O)Cc1nc(-c2ccc3ccccc3c2)oc1C
15,156 to 159 °C,Cn1ccnc1S(=O)(=O)c1ccccc1Cl
16,70 to 80 °C,N=C(NCc1ccccc1)NN=Cc1c(Cl)cccc1Cl
17,92 to 93 °C,COC(=O)c1cccc([N+](=O)[O-])c1N
18,120 to 123 °C,COc1cc(NC(SC)=C(C#N)S(=O)(=O)c2ccc(Cl)cc2)cc(OC)c1
19,154 to 155 °C,Cc1oc(-c2cc3ccccc3s2)nc1COc1ccc(CCCC2OC(=O)NC2=O)cc1 (stereo unspecified)

# Reference: a melting point compilation (Tetko et al.; mined from patent text by program, amines drawn as free bases though some values may be those of a salt)
